Laboratory results: PMC12724174, “Biodegradation of the endocrine-disrupting compound bisphenol F by Sphingobium yanoikuyae DN12” (Applied and Environmental Microbiology, 2025)

Assays:
[1] = tested on: T1, BpfAB (BpfA1B1); experiment: HPLC of residual substrate; Michaelis-Menten nonlinear fit; format: biochemical, Sphingobium yanoikuyae; conditions: apparent; optimal pH 8.0 and 55°C; 0.1 mM FAD, 0.2 mM phenazine methosulfate in standard assay; BpfB mostly apo
T1 construct: gene bpfA1; bpfA1B1 co-expressed from pET-29a in E. coli BL21(DE3), N-terminal His6 on BpfA (MHHHHHHPLSVAE by primer), Ni-NTA; total 663 aa; BpfB mostly apo (little heme); C-terminus of BpfB VEPKP by primer; with Cytochrome c BpfB

[2] = tested on: T2, BpfC (BpfC1); experiment: as above; format: biochemical, Sphingobium yanoikuyae; conditions: apparent; optimal pH 8.5 and 40°C; 0.02 mM FAD, 0.4 mM nicotinamide adenine dinucleotide phosphate in standard assay; aerobic
T2 construct: full length, 402 aa (1,209 bp), C-terminal His6 (pET-29a), E. coli BL21(DE3), Ni-NTA; N-terminus MSGNDR and C-terminus FAESVQ-LEHHHHHH by primers

| Km [2] [µM] | SMILES | Km [1] [µM] |
| --- | --- | --- |
| – | Oc1ccc(Cc2ccc(O)cc2)cc1 [BPF, Bisphenol F] | 19.3 ± 6.66 |
| 21.3 ± 2.88 | O=C(c1ccc(O)cc1)c1ccc(O)cc1 [DHBP, 4,4'-dihydroxybenzophenone] | – |
